Data: BindingDB's records for doi:10.7270/Q2251GJ9 (The Scripps Research Institute Molecular Screening Center, 2007)

Target: Sphingosine 1-phosphate receptor 1 (Homo sapiens, UniProt P21453)
Experiment: direct activation of human S1P1 – cell-based, agonist mode, 60K MLSMR set, dose response (AID 468)

Sequence of Sphingosine 1-phosphate receptor 1 (P21453 whole entry): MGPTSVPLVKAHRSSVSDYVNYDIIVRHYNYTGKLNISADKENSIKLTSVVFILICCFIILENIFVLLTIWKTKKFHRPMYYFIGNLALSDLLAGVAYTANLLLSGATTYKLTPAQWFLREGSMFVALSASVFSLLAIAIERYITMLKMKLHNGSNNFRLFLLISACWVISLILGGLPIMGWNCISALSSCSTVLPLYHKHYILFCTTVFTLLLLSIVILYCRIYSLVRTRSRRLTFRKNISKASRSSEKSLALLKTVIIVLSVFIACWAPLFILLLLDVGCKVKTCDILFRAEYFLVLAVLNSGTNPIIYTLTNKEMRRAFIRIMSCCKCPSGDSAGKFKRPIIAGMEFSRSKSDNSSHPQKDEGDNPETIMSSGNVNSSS

EC50: 8.51 µM
SMILES: CC(C)(C)OC(=O)N[C@@H](Cc1ccccc1)c1nnc(S(=O)(=O)Cc2cccc(F)c2)o1 [tert-butyl N-[(1S)-1-[5-[(3-fluorophenyl)methylsulfonyl]-1,3,4-oxadiazol-2-yl]-2-phenylethyl]carbamate]
